Test results reported in US20070219180A1, “Muscle Relaxtion Accelerator and Therapeutic Agent for Muscular Tissue Diseases Such as Muscle Relaxation Failure” (priority 2004, published 2007).

Legend:
male Wistar rats [1] = assay: Experiment 11: protective effect on diastolic dysfunction of the myocardium (compound given before norepinephrine); assay type: in vivo, rat
Protocol: This experiment was performed to examine the protective effect of the compound on left ventricular diastolic dysfunction, and the compound was administered 5 minutes before administration of the norepinephrine solution referred to in Experiment 1, in which a calcium solution and a norepinephrine solution were administered after calcium administration for 20 minutes.
In this experiment, the 1,4-benzothiazepine derivative or pharmaceutically acceptable salt thereof was used as the compound.
Eight-week old male Wistar rats weighing 310-320 g were used in the study. The rats were anesthetized with 1,000 mg/kg of urethane and 80 mg/kg of α-chloralose by subperitoneal injection under artificial respiration (SN-480-7, Shinano) using endotracheal intubation. In this experiment, 100 mg of the compound was dissolved in 1 ml of dimethylsulfoxide (DMSO) and the resulting DMSO solution of the compound was stored at 4° C. Norepinephrine solution was prepared by dissolving 1 mg of norepinephrine in 41 μl of distilled water, at an infusion speed of […].
Firstly, continuous infusion catheters of calcium chloride solution or norepinephrine solution containing calcium chloride were inserted into the right external jugular veins of the rats, microchip catheters (SPC-320, Millar) was inserted into the left ventricles via the right common arteries, and the left ventricular end-diastolic pressure was measured. In addition, test drug infusion catheters were inserted into the right femoral veins.
A 1-lead electrocardiogram and the left ventricular pressure were recorded simultaneously on a personal computer via an A/D converter. The left ventricular diastolic pressure was determined as the mean of data measured over 20 heart beats every 5 minutes, when the pressure equivalent to the R wave of the electrocardiogram was defined as the left ventricular diastolic pressure. In the preparation step, blood pressure, pulse, and electrocardiogram of the rats were monitored for 15 minutes and allowed to stabilize, and then 5% dextrose solution containing calcium chloride (at a concentration based on the weight of the rat) was infused into the right external jugular vein for 20 minutes at 16.6 μl/min (12.0 mg/kg/min of calcium chloride).
Secondly, a norepinephrine solution containing calcium chloride without a change in dosage was immediately injected at a rate of 30 μg/kg/min via the right external jugular vein. After the start of administration, calcium chloride and norepinephrine were then continuously injected in the form of a norepinephrine solution containing calcium chloride. With continuous injection of calcium chloride and norepinephrine (in the form of a norepinephrine solution containing calcium chloride) via the right external jugular vein, 0.2 ml of 1% DMSO solution of the solvent used for the test compound was administered over 30 seconds to a rat (weight: 310 g, Control; this animal was not administered the compound) via the right femoral vein, 5 minutes before commencement of injection (intravenous injection) of calcium chloride and norepinephrine (in the form of a norepinephrine solution containing calcium chloride) via the right external jugular vein.
Similarly to the Control, with continuous injection of calcium chloride and norepinephrine (in the form of a norepinephrine solution containing calcium chloride) via the right external jugular vein, 0.2 ml of a 1% DMSO solution containing 0.3 mg/kg of the compound was administered over 30 seconds to a rat (weight: 320 g, defined as Test 14) via the right femoral vein, 5 minutes before commencement of injection (intravenous injection) via the right external jugular vein of calcium chloride and norepinephrine. Furthermore, in this experiment, after the test drug was injected over 30 seconds, a 1:10 dilution of the injected test drug was additionally administered at 10 μl/min from commencement of test drug injection to 15 minutes after the start of administration. […]

male Wistar rats [2] = assay: Experiment 3: left ventricular diastolic function by tissue Doppler imaging; assay type: in vivo, rat; conditions: 0.3 mg/kg i.v. over 30 s then 0.02 mg/kg/min for 20 min
Protocol: In this experiment on the invention, two 9-week old male Wistar rats weighing 310 and 320 g were used. The rats were anesthetized with 1,000 mg/kg of urethane and 80 mg/kg of α-chloralose by subperitoneal injection, and natural respiration was maintained. In this experiment, 100 mg of the compound was dissolved in 1 ml of dimethylsulfoxide (DMSO) and the resulting DMSO solution was stored at 4° C. Norepinephrine solution was prepared by dissolving 1 mg of norepinephrine in 41 μl of distilled water.
Similarly to Test drug 1, this study was performed at room temperature of 20 to 25° C., and also similarly to Test drug 1, continuous infusion catheters of calcium chloride solution or norepinephrine solution containing calcium chloride were inserted into the right external jugular vein and microchip catheters (SPC-320, Millar) were inserted into the aorta via the right common arteries.
A 1-lead electrocardiogram was recorded, and blood pressure, pulse, and electrocardiogram of the rats were monitored for 15 minutes and allowed to stabilize. In the preparation step, calcium chloride dissolved in 5% dextrose solution was infused into the right external jugular vein for 25 minutes at 16.6 μl/min (9.0 mg/kg/min of calcium chloride).
Secondly, immediate injection (intravenous injection) of a solution containing calcium chloride and norepinephrine without changes in dosage was started via the right external jugular vein at a rate of 40 μg/kg/min. After the start of administration, calcium chloride and norepinephrine were continuously injected in the form of a norepinephrine solution containing calcium chloride. Furthermore, with continuous injection of calcium chloride and norepinephrine (in the form of a norepinephrine solution containing calcium chloride), 0.2 ml of 1% DSMO was administered alone over 30 seconds to the first rat (weight: 310 g) as a control via the right femoral vein, 5 minutes after commencement of intravenous injection of calcium chloride and norepinephrine (in the form of a norepinephrine solution containing calcium chloride); this rat was defined as Control 4. Similarly to Control 4, with continuous injection of calcium chloride and norepinephrine (in the form of a norepinephrine solution containing calcium chloride) 0.2 ml of 1% DSMO solution containing 0.3 mg/kg of the test drug in the invention was administered over 30 seconds to a second rat (weight: 320 g; Test drug 3) via its right femoral vein, followed by administration for 20 minutes at 0.02 mg/kg/min, 5 minutes after intravenous injection of calcium chloride and norepinephrine (in the form of a norepinephrine solution containing calcium chloride). The left ventricular diastolic function of each rat was examined using tissue Doppler ultrasonography. Ultrasonic diagnostic equipment (Toshiba Powervision SSA-380APSK-70LT, Toshiba Corporation) was used and the rats were examined using ultrasound at 10 MHz. Firstly, the precordial region of each rat was shaved, and an ECHO probe was placed on the cardiac apex. The long axis of the left ventricle of the cardiac apex was imaged, a sample volume for pulsed-wave Doppler was established at the base of the posterior mitral leaflet, and the velocity of the left ventricular posterior wall motion [Ea wave (m/sec)] was measured at diastole as the left ventricular diastolic function. In this experiment, the left ventricular diastolic function is defined as the ratio of the velocity of the left ventricular wall motion at diastole before intravenous injection of norepinephrine (before administration; i.e. a normal left ventricular wall) determined using tissue Doppler imaging, or the ratio of the velocity of the left ventricular wall motion at diastole after intravenous injection of norepinephrine (after administration).

COc1ccc2c(c1)CN(C(=O)CCN1CCC(Cc3ccccc3)CC1)CCS2 [the compound, 4-[3-(4-benzylpiperidine-1-yl)propionyl]-7-methoxy-2,3,4,5-tetrahydro-1,4-benzothiazepine]
left ventricular end-diastolic pressure (male Wistar rats [1]; Test 14: 0.3 mg/kg i.v. over 30 s 5 min before norepinephrine, then 0.02 mg/kg/min, 25 minutes before (5 minutes before the start of CaCl2), baseline): 7.2 mmHg
left ventricular end-diastolic pressure (male Wistar rats [1]; Test 14: 0.3 mg/kg i.v. over 30 s then 0.02 mg/kg/min, 5 minutes after the start of test drug (just before the start of norepinephrine)): 8.0 mmHg
left ventricular end-diastolic pressure (male Wistar rats [1]; Test 14: 0.3 mg/kg i.v. over 30 s then 0.02 mg/kg/min, 10 minutes after the start of test drug (5 minutes after the start of norepinephrine 30 μg/kg/min)): 14.5 mmHg
left ventricular end-diastolic pressure (male Wistar rats [1]; Test 14: 0.3 mg/kg i.v. over 30 s then 0.02 mg/kg/min, 10 minutes before (10 minutes after the start of CaCl2), baseline): 7.9 mmHg
left ventricular end-diastolic pressure (male Wistar rats [1]; Test 14: 0.3 mg/kg i.v. over 30 s then 0.02 mg/kg/min, 15 minutes after the start of test drug (10 minutes after the start of norepinephrine 30 μg/kg/min)): 18.3 mmHg
left ventricular end-diastolic pressure (male Wistar rats [1]; Test 14: 0.3 mg/kg i.v. over 30 s then 0.02 mg/kg/min, 20 minutes before (just after the start of CaCl2), baseline): 7.7 mmHg
left ventricular end-diastolic pressure (male Wistar rats [1]; Test 14: 0.3 mg/kg i.v. over 30 s then 0.02 mg/kg/min, just before test drug (20 minutes after the start of CaCl2), baseline): 8.1 mmHg
Ratio of the velocity of the left ventricular wall motion at diastole (male Wistar rats [2]; 0 minutes (just before the start of intravenous injection of the test drug)): 1.00
Ratio of the velocity of the left ventricular wall motion at diastole (male Wistar rats [2]; CaCl2 + norepinephrine infusion, 5 minutes after the start of test drug): 1.02
Ratio of the velocity of the left ventricular wall motion at diastole (male Wistar rats [2]; CaCl2 + norepinephrine infusion, 10 minutes after the start of test drug): 1.04
Ratio of the velocity of the left ventricular wall motion at diastole (male Wistar rats [2]; CaCl2 + norepinephrine infusion, 15 minutes after the start of test drug): 1.00
Ratio of the velocity of the left ventricular wall motion at diastole (male Wistar rats [2]; CaCl2 + norepinephrine infusion, 20 minutes after the start of test drug): 1.00
Ratio of the velocity of the left ventricular wall motion at diastole (male Wistar rats [2]; CaCl2 + norepinephrine infusion, 25 minutes after the start of test drug): 0.94
Ratio of the velocity of the left ventricular wall motion at diastole (male Wistar rats [2]; CaCl2 + norepinephrine infusion, 30 minutes after the start of test drug): 0.95
Ratio of the velocity of the left ventricular wall motion at diastole (male Wistar rats [2]; Ea wave relative to before norepinephrine, 5 minutes before test drug (just before the start of norepinephrine), baseline): 1.00
